Source: patent US10865191B2, “Heterocyclic compounds useful as modulators of TNF alpha” (BRISTOL-MYERS SQUIBB COMPANY, priority 2015, dated 2020)

target: TNFα (Homo sapiens, UniProt P01375); experiment: TNF induced HEK-Blue assay (NF-kB-driven secreted alkaline phosphatase reporter); type: cell-based; details: TNFα 0.5 ng/mL, HEK-Blue-CD40L cells, 18 h; read-out: TNF induced HEK-Blue assay IC50 value
Procedure, shortened: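 HEK-Blue-CD40L cells (NF-kB-driven SEAP reporter), 20,000/well, added after 30 min pre-incubation of compound (0.004–25 μM final) with TNFα 0.5 ng/mL final at 37 °C; 18 h incubation. SEAP read with QUANTI-Blue at 620 nm; IC50 from 4-parameter logistic fit, normalized to unstimulated and stimulated DMSO controls.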

Sequence of TNFα (P01375 77-233 limits assumed): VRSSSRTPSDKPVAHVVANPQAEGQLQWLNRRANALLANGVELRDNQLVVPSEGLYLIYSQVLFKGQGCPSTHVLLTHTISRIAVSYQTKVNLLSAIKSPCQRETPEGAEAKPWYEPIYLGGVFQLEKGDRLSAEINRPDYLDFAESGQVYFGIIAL

Structure (SMILES) | IC50 [nM]
Cc1nc2ccc(-c3cnc(C(C)(C)O)nc3)cc2c(N[C@H](C)c2ccccc2)c1Cl [Example 322, (R)-2-(5-(3-chloro-2-methyl-4-((1-phenylethyl)amino)quinolin-6-yl)pyrimidin-2-yl)propan-2-ol] | 10000 to 25000
Cc1nc2ccc(-c3cnc(C(C)(C)O)nc3)cc2c(N[C@H](C)c2cc(CCO)ccc2F)c1Cl [Example 323, (R)-2-(5-(3-chloro-4-((1-(2-fluoro-5-(2-hydroxyethyl)phenyl)ethyl)amino)-2-methylquinolin-6-yl)pyrimidin-2-yl)propan-2-ol] | < 1000
Cc1nc2cc(F)c(-c3cnc(C(C)(C)O)nc3)cc2c(N[C@H](C)c2cc(OCCO)ccc2F)c1Cl [Example 324, (R)-2-(5-(3-chloro-7-fluoro-4-((1-(2-fluoro-5-(2-hydroxyethoxy)phenyl)ethyl)amino)-2-methylquinolin-6-yl)pyrimidin-2-yl)propan-2-ol] | < 1000
Cc1nc2cc(F)c(-c3cnc(C(C)(C)O)nc3)cc2c(N[C@H](C)c2cc(CCO)ccc2F)c1Cl [Example 325, (R)-2-(5-(3-chloro-7-fluoro-4-((1-(2-fluoro-5-(2-hydroxyethyl)phenyl)ethyl)amino)-2-methylquinolin-6-yl)pyrimidin-2-yl) propan-2-ol] | < 1000
COc1ccc(F)c([C@@H](C)Nc2c(Cl)c(C)nc3ccc(-c4cnc(C(C)(C)O)nc4)cc23)c1 [Example 326, (R)-2-(5-(3-chloro-4-((1-(2-fluoro-5-methoxyphenyl)ethyl)amino)-2-methylquinolin-6-yl)pyrimidin-2-yl)propan-2-ol] | < 1000
COc1ccc(F)c([C@@H](C)Nc2c(Cl)cnc3ccc(-c4cnc(C(C)(C)O)nc4)cc23)c1 [Example 327, (R)-2-(5-(3-chloro-4-((1-(2-fluoro-5-methoxyphenyl)ethyl)amino)quinolin-6-yl)pyrimidin-2-yl)propan-2-ol] | < 1000
COc1ccc(F)c([C@@H](C)Nc2c(Cl)c(C)nc3ccc(Br)cc23)c1 [Example 328, (R)-6-bromo-3-chloro-N-(1-(2-fluoro-5-methoxyphenyl)ethyl)-2-methylquinolin-4-amine] | 1000 to 10000
COc1ccc(F)c([C@@H](C)Nc2c(Cl)c(C)nc3ccccc23)c1 [Example 329, (R)-3-chloro-N-(1-(2-fluoro-5-methoxyphenyl)ethyl)-2-methylquinolin-4-amine] | 1000 to 10000
C=Cc1ccc(F)c([C@@H](C)Nc2c(Cl)c(C)nc3ccc(-c4cnc(C(C)(C)O)nc4)cc23)c1 [Example 330, (R)-2-(5-(3-chloro-4-((1-(2-fluoro-5-vinylphenyl)ethyl)amino)-2-methylquinolin-6-yl)pyrimidin-2-yl)propan-2-ol] | < 1000
Cc1nc2ccc(-c3cnc(C(C)(C)O)nc3)cc2c(N[C@H](C)c2cc(-c3ccccc3)ccc2F)c1Cl [Example 331, (R)-2-(5-(3-chloro-4-((1-(4-fluoro-[1,1′-biphenyl]—3-yl)ethyl)amino)-2-methylquinolin-6-yl)pyrimidin-2-yl)propan-2-ol] | < 1000
Cc1ccccc1-c1ccc(F)c([C@@H](C)Nc2c(Cl)c(C)nc3ccc(-c4cnc(C(C)(C)O)nc4)cc23)c1 [Example 332, (R)-2-(5-(3-chloro-4-((1-(4-fluoro-2′-methyl-[1,1′-biphenyl]-3-yl)ethyl)amino)-2-methylquinolin-6-yl)pyrimidin-2-yl)propan-2-ol] | < 1000
Cc1nc2ccc(-c3cnc(C(C)(C)O)nc3)cc2c(N[C@H](C)c2cc(C3=CCCC3)ccc2F)c1Cl [Example 333, (R)-2-(5-(3-chloro-4-((1-(5-(cyclopent-1-en-1-yl)-2-fluorophenyl)ethyl)amino)-2-methylquinolin-6-yl)pyrimidin-2-yl)propan-2-ol] | < 1000
Cc1ccc(F)c([C@@H](C)Nc2c(Cl)c(C)nc3ccc(-c4cnc(C(C)(C)O)nc4)cc23)c1 [Example 334, (R)-2-(5-(3-chloro-4-((1-(2-fluoro-5-methylphenyl)ethyl)amino)-2-methylquinolin-6-yl)pyrimidin-2-yl)propan-2-ol] | < 1000
Cc1nc2ccc(-c3cnc(C(C)(C)O)nc3)cc2c(N[C@H](C)c2cc(-c3cn[nH]c3)ccc2F)c1Cl [Example 335, (R)-2-(5-(3-chloro-4-((1-(2-fluoro-5-(1H-pyrazol-4-yl)phenyl)ethyl)amino)-2-methylquinolin-6-yl)pyrimidin-2-yl) propan-2-ol] | < 1000
Cc1nc2ccc(-c3cnc(C(C)(C)O)nc3)cc2c(N[C@H](C)c2cc(-c3cc[nH]n3)ccc2F)c1Cl [Example 336, (R)-2-(5-(3-chloro-4-((1-(2-fluoro-5-(1H-pyrazol-3-yl)phenyl)ethyl)amino)-2-methylquinolin-6-yl)pyrimidin-2-yl)propan-2-ol] | < 1000
C[C@@H](Nc1c(Cl)cnc2ccc(-c3cnc(C(C)(C)O)nc3)cc12)c1cc(C2=CCN(C(=O)OC(C)(C)C)CC2)ccc1F [Example 337, tert-butyl (R)-4-(3-(1-((3-chloro-6-(2-(2-hydroxypropan-2-yl)pyrimidin-5-yl)quinolin-4-yl)amino)ethyl)-4-fluorophenyl)-3,6-dihydropyridine-1(2H)-carboxylate] | 1000 to 10000
C[C@@H](Nc1c(Cl)cnc2ccc(-c3cnc(C(C)(C)O)nc3)cc12)c1cc(C2=CCNCC2)ccc1F [Example 338, (R)-2-(5-(3-chloro-4-((1-(2-fluoro-5-(1,2,3,6-tetrahydropyridin-4-yl)phenyl)ethyl)amino)quinolin-6-yl)pyrimidin-2-yl)propan-2-ol] | < 1000
C[C@@H](Nc1c(Cl)cnc2ccc(-c3cnc(C(C)(C)O)nc3)cc12)c1cc(-c2cnn(C)c2)ccc1F [Example 339, (R)-2-(5-(3-chloro-4-((1-(2-fluoro-5-(1-methyl-1H-pyrazol-4-yl)phenyl)ethyl)amino)quinolin-6-yl)pyrimidin-2-yl)propan-2-ol] | < 1000
C[C@@H](Nc1c(Cl)cnc2ccc(-c3cnc(C(C)(C)O)nc3)cc12)c1cc(-c2cncnc2)ccc1F [Example 340, (R)-2-(5-(3-chloro-4-((1-(2-fluoro-5-(pyrimidin-5-yl)phenyl)ethyl)amino)quinolin-6-yl)pyrimidin-2-yl) propan-2-ol] | < 1000
C[C@@H](Nc1c(Cl)cnc2ccc(-c3cnc(C(C)(C)O)nc3)cc12)c1cc(-c2cnccn2)ccc1F [Example 341, (R)-2-(5-(3-chloro-4-((1-(2-fluoro-5-(pyrazin-2-yl)phenyl)ethyl)amino)quinolin-6-yl)pyrimidin-2-yl)propan-2-ol] | < 1000
Cc1nc2ccc(-c3cnc(N4CCN(CC(=O)O)CC4)nc3)cc2c(N[C@H](C)c2cc(-c3cn[nH]c3)ccc2F)c1Cl [Example 342, (R)-2-(4-(5-(3-chloro-4-((1-(2-fluoro-5-(1H-pyrazol-4-yl)phenyl)ethyl)amino)-2-methylquinolin-6-yl)pyrimidin-2-yl)piperazin-1-yl)acetic acid] | < 1000
Cc1nc2ccc(-c3cnc(C(C)(C)O)nc3)cc2c(N[C@H](C)c2cc(-c3cnc(C(C)(C)O)nc3)ccc2F)c1Cl [Example 343, (R)-2-(5-(3-chloro-4-((1-(2-fluoro-5-(2-(2-hydroxypropan-2-yl)pyrimidin-5-yl)phenyl)ethyl)amino)-2-methylquinolin-6-yl)pyrimidin-2-yl)propan-2-ol] | < 1000
Cc1nc2ccc(-c3cnc(C(C)(C)O)nc3)cc2c(N[C@H](C)c2cc(-c3cnn(C)c3)ccc2F)c1Cl [Example 344, (R)-2-(5-(3-chloro-4-((1-(2-fluoro-5-(1-methyl-1H-pyrazol-4-yl)phenyl)ethyl)amino)-2-methylquinolin-6-yl)pyrimidin-2-yl)propan-2-ol] | < 1000
C[C@@H](Nc1c(Cl)cnc2ccc(-c3cnc(C(C)(C)O)nc3)cc12)c1cc(-c2ncccn2)ccc1F [Example 345, (R)-2-(5-(3-chloro-4-((1-(2-fluoro-5-(pyrimidin-2-yl)phenyl)ethyl)amino)quinolin-6-yl)pyrimidin-2-yl)propan-2-ol] | < 1000
C[C@@H](Nc1c(Cl)cnc2ccc(-c3cnc(C(C)(C)O)nc3)cc12)c1cc(-c2cnn(CC(=O)O)c2)ccc1F [Example 346, (R)-2-(4-(3-(1-((3-chloro-6-(2-(2-hydroxypropan-2-yl)pyrimidin-5-yl)quinolin-4-yl)amino)ethyl)-4-fluorophenyl)-1H-pyrazol-1-yl)acetic acid] | 1000 to 10000
C[C@@H](Nc1c(Cl)cnc2ccc(-c3cnc(C(C)(C)O)nc3)cc12)c1cc(-c2cncs2)ccc1F [Example 347, (R)-2-(5-(3-chloro-4-((1-(2-fluoro-5-(thiazol-5-yl)phenyl)ethyl)amino)quinolin-6-yl)pyrimidin-2-yl)propan-2-ol] | < 1000
C[C@@H](Nc1c(Cl)cnc2ccc(-c3cnc(C(C)(C)O)nc3)cc12)c1cc(-c2ccc(N)nc2)ccc1F [Example 348, (R)-2-(5-(4-((1-(5-(6-aminopyridin-3-yl)-2-fluorophenyl)ethyl)amino)-3-chloroquinolin-6-yl)pyrimidin-2-yl)propan-2-ol] | < 1000
C[C@@H](Nc1c(Cl)cnc2ccc(-c3cnc(C(C)(C)O)nc3)cc12)c1cc(-c2cnn(CC(C)(C)O)c2)ccc1F [Example 349, (R)-1-(4-(3-(1-((3-chloro-6-(2-(2-hydroxypropan-2-yl)pyrimidin-5-yl)quinolin-4-yl)amino)ethyl)-4-fluorophenyl)-1H-pyrazol-1-yl)-2-methylpropan-2-ol] | < 1000
C[C@@H](Nc1c(Cl)cnc2ccc(-c3cnc(C(C)(C)O)nc3)cc12)c1cc(-c2ccnc(N)c2)ccc1F [Example 350, (R)-2-(5-(4-((1-(5-(2-aminopyridin-4-yl)-2-fluorophenyl)ethyl)amino)-3-chloroquinolin-6-yl)pyrimidin-2-yl)propan-2-ol] | < 1000
